Test results taken from patent US20070197586A1, “8-Hydroxy-5-[(-Hydroxy-2-[[ (1R)-2-(4-Methoxyphenyl)-1-Methylethyl] Amino][Ethyl]-2(1H)-Quinolinone Monohydrochloride In Crystalline Form And The Process For Its Preparation” (Chiesi Farmaceutici S.p.A., priority 2004, published 2007).

Test: Crystalline degree by in-house DSC method (heat of fusion vs 100% crystalline reference standard)
Type: physicochemical
Conditions: samples as such and after grinding or micronization; DSC scan rate 130° C./min; maintained after grinding and micronization
Protocol: The crystalline degree of the compound has been determined according to a differential scanning calorimetry (DSC) method developed in-house based on the measurement of the heat of fusion.
Said method uses a scan rate of 130° C./min to evaluate the percentage of crystalline compound in a sample by determining the ratio between the ΔH (heat of fusion) of the sample with respect to the ΔH of a 100% crystalline reference standard, determined in the same range of temperature and in the same experimental conditions. The 100% crystalline reference standard was prepared by suspending the compound in ethanol, then filtering to eliminate the residual amorphous compound dissolved in ethanol, and drying.
The method was applied to samples of the compound of the Example as such, and after grinding or micronization.

COc1ccc(C[C@@H](C)NC[C@H](O)c2ccc(O)c3[nH]c(=O)ccc23)cc1.Cl [compound of the Example, 8-hydroxy-5-[(1R)-1-hydroxy-2-[[(1R)-2-(4-methoxyphenyl)-1-methylethyl]amino]ethyl]-2(1H)-quinolinone monohydrochloride]
cristallinity degree: higher than 90%
